Measurements reported in patent publication US20150051246A1 (priority 2013, published 2015).

Key:
[1] = system: xylazine/ketamine induced α2-adrenergic receptor-mediated anesthesia; conditions: in vivo, 3 mg/kg
From the text: Since emesis is a typical side-effect of PDE4 inhibitors the emetic potential of roflumilast and rolipram was investigated in parallel using the xylazine/ketamine induced α2-adrenergic receptor-mediated anesthesia test. The results confirmed that the two phosphodiesterase 4 inhibitors have different effects on emesis.

[2] = system: 60 to 80 years old subjects; assay: Bond-Lader Visual Analogue Scales (BL-VAS) in elderly subjects; assay type: in vivo, human; conditions: 45 min after the low dose
From the text: Bond-Lader Visual Analogue Scales (BL-VAS): The BL-VAS (Bond A and Lader M, 1974; Br J Med Psycho) Vol 47, pp. 211-218) will be used in order to assess alertness, calmness, and contentedness. BL-VAS consists of 16 100 mm visual analogue scales anchored by antonyms (e.g. Alert-Drowsy, Lethargic-Energetic; etc) and be applied on testing Day 1 and 2 of each treatment period.
An interim analysis has been performed based on the data of 9 subjects of the Impaired Elderly group and 4 subjects of the Healthy Elderly group. For this purpose, cognitive battery test scores (VLT, SMT, Stroop task and BL-VAS) and concentrations of roflumilast and roflumilast-N-oxide in plasma have been analysed and summarized by dose over each scheduled sampling time using descriptive statistics.

male Wistar rats = assay: Object recognition task (ORT), scopolamine induced memory deficit; assay type: in vivo
Procedure: Memory acquisition processes are investigated using the object recognition test (ORT).
Twenty four 3-4 month old male Wistar rats (Charles River, Sulzfeld, Germany) were used for the study. All animals were housed individually in standard green line Tecniplast IVC cages on stardust bedding. The animals were housed on a reversed 12/12 h light/dark cycle (lights on from 07:00 pm to 07:00 am) and had free access to food and water. The rats were housed and tested in the same room. A radio, playing softly, provided background noise in the room. All testing was performed between 09:00 am and 06:00 pm.
Drugs were prepared daily, except as indicated otherwise. Roflumilast (Takeda, Konstanz, Germany, MW 403.21) was dissolved in 98% methylcellulose solution (0.5% methylcellulose) and 2% Tween 80. Roflumilast in doses of 0 (vehicle), 0.0001, 0.0003, 0.001, 0.003, 0.01 and 0.03 mg/kg was administered intraperitonally (ip, injection volume 1 ml/kg). […] All compounds were administered 30 min before T1.
The testing order of conditions was determined randomly. The experimenter was blind of testing protocol. A within design was used and all treatment conditions were balanced over rats. The ORT was performed as described elsewhere (Ennaceur and Delaceur, 1988, Behav Brain Res, Vol 31, pp 47-59; Akkerman et al; 2012, Behav Brain Res, Vol 232, pp 335-347). The apparatus consisted of a circular arena, 83 cm in diameter. The back half of the 40 cm high wall was made of grey PVC and the front was made of transparent PVC. Fluorescent red tubes and a light bulb provided a constant illumination of about 20 lux on the floor of the apparatus. The light intensity was equal in the different parts of the apparatus.
Two objects were placed in symmetrical positions at the mid-line between the gray and transparent halves of the arena, about ten centimeters away from wall. Four different sets of objects were available: 1) a standard 1 L brown transparent glass bottle (diameter 10 cm, height 22 cm) filled with water, 2) a metal cube (10.0×5.0×7.5 cm) with two holes (diameter 1.9 cm), 3) a cone consisting of a gray PVC base (maximal diameter 18 cm) with a collar on top made of brass (total height 16 cm), and 4) an aluminum cube with a tapering top (13.0×8.0×8.0 cm). Objects were presented to the animals in a balanced manner to avoid object or place biases. Rats were unable to displace the objects.
A test session comprised two trials, each with durations of 3 min. During the learning trial (T1) the apparatus contains two identical objects (object a1 and a2). Rats were always introduced into the apparatus with their nose towards the transparent wall segment (i.e. facing outwards to the front of the arena). Subsequently, rats were put back in its home cage for a 1 h interval. After the retention interval, rats were put back into the arena for the […] (T2). In T2, the two objects from T1 were replaced by one identical copy (a3) and a different novel object (b). The times spent in exploring each object during T1 and T2 were recorded manually on a personal computer.
Exploration was defined in the following manner: directing the nose to the object at a distance of no more than 2 cm and/or touching the object with the nose. Sitting on the object was not considered as exploratory behavior. In order to avoid the presence of olfactory cues, the objects were thoroughly cleaned with a 70% ethanol solution before each trial.
Prior to compound testing, the animals were handled for 5 min on 2 consecutive days and allowed to explore the ORT arena, also for 5 min. Subsequently, the animals were accustomed to the complete ORT testing procedure without receiving any injection.
The readout parameters of the object recognition task are the times that rats spent on exploring each object during T1 and T2. The exploration time (in seconds) of each object during T1 are presented as “a1” and “a2”.

SMILES: O=C(Nc1c(Cl)cncc1Cl)c1ccc(OC(F)F)c(OCC2CC2)c1 [roflumilast, N-(3,5-dichloropyridin-4-yl)-3-cyclopropylmethoxy-4-difluoromethoxybenzamide]
- emetic potential [1]: tendency towards emetic potential
- (subjective) alertness in comparison with placebo, BL-VAS scores [2]: significantly higher (subjective) alertness
- effect on memory performance (in words) (male Wistar rats; 0.0001 mg/kg ip, scopolamine deficit): no effect on memory performance
- effect on memory performance (in words) (male Wistar rats; 0.0003 mg/kg and 0.001 mg/kg, scopolamine deficit): intermediate memory improvement
- effect on memory function (in words) (male Wistar rats; doses of 0.003 mg/kg and higher, scopolamine deficit): fully restore memory function
- d2 (male Wistar rats; rat, in vivo): 0.34
- d2 (male Wistar rats; roflumilast 0.0001 mg/kg ip + scopolamine 0.1 mg/kg, 1 h retention): 0.05
- d2 (male Wistar rats; roflumilast 0.0003 mg/kg ip + scopolamine 0.1 mg/kg, 1 h retention): 0.16
- d2 (male Wistar rats; roflumilast 0.001 mg/kg ip + scopolamine 0.1 mg/kg, 1 h retention): 0.27
- d2 (male Wistar rats; roflumilast 0.003 mg/kg ip + scopolamine 0.1 mg/kg, 1 h retention): 0.43
- d2 (male Wistar rats; roflumilast 0.03 mg/kg ip + scopolamine 0.1 mg/kg, 1 h retention): 0.30
- d2 (male Wistar rats; scopolamine 0.1 mg/kg + roflumilast 0.0001 mg/kg ip, rof + dpz study): 0.04
- effect on memory function (in words) (male Wistar rats; single ip dose 0.003 mg/kg, scopolamine deficit): fully restore spatial memory function
- effect on memory function (in words) (male Wistar rats; single ip doses 0.01, 0.03, 0.001 and 0.0003 mg/kg): increasingly less efficacy
